From PubChem BioAssay AID1918930 (Molecular Pharmacology Branch, DTP, NCI, 2023)

Test system: 233499-124-R-J3-PDC complex spheroid viability, % test/control
Test: Anticancer human tumor 233499-124-R-J3-PDC patient-derived colon adenocarcinoma cell line growth inhibition
Conditions: for IC50: curve of first compound; for viability, T/C: stronger effect = lower value
Summary of the method: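 Complex spheroids of tumor cells with HUVEC and human MSCs, exposed to iadademstat combined with other agents. Each agent tested in half-log steps from near clinical Cmax (else 10 microM top), DMSO ≤0.25%.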

[1] = second compound 0.1 µM, first compound 0.0316 µM
[2] = second compound 0.1 µM, first compound 0.1 µM
[3] = second compound 0.1 µM, first compound 0.316 µM
[4] = second compound 0.1 µM, first compound 1 µM
[5] = second compound 0.1 µM, first compound 3.16 µM
[6] = second compound 0.1 µM, first compound 10 µM
[7] = second compound 0.316 µM, first compound 0.0316 µM
[8] = second compound 0.316 µM, first compound 0.1 µM
[9] = second compound 0.316 µM, first compound 0.316 µM
[10] = second compound 0.316 µM, first compound 1 µM
[11] = second compound 0.316 µM, first compound 3.16 µM
[12] = second compound 0.316 µM, first compound 10 µM
[13] = second compound 1 µM, first compound 0.0316 µM
[14] = second compound 1 µM, first compound 0.1 µM
[15] = second compound 1 µM, first compound 0.316 µM
[16] = second compound 1 µM, first compound 1 µM
[17] = second compound 1 µM, first compound 3.16 µM
[18] = second compound 1 µM, first compound 10 µM
[19] = second compound 3.16 µM, first compound 0.0316 µM
[20] = second compound 3.16 µM, first compound 0.1 µM
[21] = second compound 3.16 µM, first compound 0.316 µM
[22] = second compound 3.16 µM, first compound 1 µM
[23] = second compound 3.16 µM, first compound 3.16 µM
[24] = second compound 3.16 µM, first compound 10 µM
[25] = second compound 10 µM, first compound 0.0316 µM
[26] = second compound 10 µM, first compound 0.1 µM
[27] = second compound 10 µM, first compound 0.316 µM
[28] = second compound 10 µM, first compound 1 µM
[29] = second compound 10 µM, first compound 3.16 µM
[30] = second compound 10 µM, first compound 10 µM
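Also: spheroids exposed to agents for one week before readout.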

O=C(c1cc(Cc2n[nH]c(=O)c3ccccc23)ccc1F)N1CCN(C(=O)C2CC2)CC1 + NC1CCC(NC2CC2c2ccccc2)CC1
IC50 (second compound 0.1 µM): > 10 µM
IC50 (second compound 0.316 µM): > 10 µM
IC50 (second compound 1 µM): > 10 µM
IC50 (second compound 3.16 µM): > 10 µM
IC50 (second compound 10 µM): > 10 µM
viability, T/C [1]: 101%
viability, T/C [2]: 107%
viability, T/C [3]: 102%
viability, T/C [4]: 102%
viability, T/C [5]: 91.7%
viability, T/C [6]: 81.6%
viability, T/C [7]: 109%
viability, T/C [8]: 102%
viability, T/C [9]: 90.5%
viability, T/C [10]: 92.3%
viability, T/C [11]: 85.6%
viability, T/C [12]: 97.3%
viability, T/C [13]: 94.5%
viability, T/C [14]: 83.3%
viability, T/C [15]: 71.1%
viability, T/C [16]: 81.3%
viability, T/C [17]: 86.1%
viability, T/C [18]: 95%
viability, T/C [19]: 82.7%
viability, T/C [20]: 90.5%
viability, T/C [21]: 84.8%
viability, T/C [22]: 75.3%
viability, T/C [23]: 87.1%
viability, T/C [24]: 79.5%
viability, T/C [25]: 79.4%
viability, T/C [26]: 68.2%
viability, T/C [27]: 67.8%
viability, T/C [28]: 69.2%
viability, T/C [29]: 79.6%
viability, T/C [30]: 69%

NS(=O)(=O)OCC1CC(n2ccc3c(NC4CCc5ccccc54)ncnc32)CC1O (stereo not given) + NC1CC1c1ccc(-c2cccc(O)c2)cc1
IC50 (second compound 0.1 µM): 0.0468 µM
IC50 (second compound 0.316 µM): 0.0585 µM
IC50 (second compound 1 µM): 0.0423 µM
IC50 (second compound 3.16 µM): 0.0524 µM
IC50 (second compound 10 µM): 0.0464 µM
viability, T/C (second compound 0.1 µM, first compound 0.00949 µM): 92.5%
viability, T/C (second compound 0.1 µM, first compound 0.03 µM): 63.6%
viability, T/C (second compound 0.1 µM, first compound 0.0949 µM): 28.6%
viability, T/C (second compound 0.1 µM, first compound 0.3 µM): 6.14%
viability, T/C (second compound 0.1 µM, first compound 0.949 µM): 3.11%
viability, T/C (second compound 0.1 µM, first compound 3 µM): 2.93%
viability, T/C (second compound 0.316 µM, first compound 0.00949 µM): 100%
viability, T/C (second compound 0.316 µM, first compound 0.03 µM): 76.9%
viability, T/C (second compound 0.316 µM, first compound 0.0949 µM): 31.2%
viability, T/C (second compound 0.316 µM, first compound 0.3 µM): 5.03%
viability, T/C (second compound 0.316 µM, first compound 0.949 µM): 4.27%
viability, T/C (second compound 0.316 µM, first compound 3 µM): 3.91%
viability, T/C (second compound 1 µM, first compound 0.00949 µM): 92.3%
viability, T/C (second compound 1 µM, first compound 0.03 µM): 59.1%
viability, T/C (second compound 1 µM, first compound 0.0949 µM): 28.5%
viability, T/C (second compound 1 µM, first compound 0.3 µM): 9.59%
viability, T/C (second compound 1 µM, first compound 0.949 µM): 4.05%
viability, T/C (second compound 1 µM, first compound 3 µM): 3.47%
viability, T/C (second compound 3.16 µM, first compound 0.00949 µM): 90.8%
viability, T/C (second compound 3.16 µM, first compound 0.03 µM): 68.8%
viability, T/C (second compound 3.16 µM, first compound 0.0949 µM): 29.9%
viability, T/C (second compound 3.16 µM, first compound 0.3 µM): 9.96%
viability, T/C (second compound 3.16 µM, first compound 0.949 µM): 4.13%
viability, T/C (second compound 3.16 µM, first compound 3 µM): 3.43%
viability, T/C (second compound 10 µM, first compound 0.00949 µM): 84%
viability, T/C (second compound 10 µM, first compound 0.03 µM): 63.9%
viability, T/C (second compound 10 µM, first compound 0.0949 µM): 27.1%
viability, T/C (second compound 10 µM, first compound 0.3 µM): 8.93%
viability, T/C (second compound 10 µM, first compound 0.949 µM): 5.35%
viability, T/C (second compound 10 µM, first compound 3 µM): 2.93%

CC(C)c1c(-c2ccccc2)nc2c(C#N)c[nH]n2c1=O + NC1CCC(NC2CC2c2ccccc2)CC1
IC50 (second compound 0.1 µM): > 10 µM
IC50 (second compound 0.316 µM): > 10 µM
IC50 (second compound 1 µM): > 10 µM
IC50 (second compound 3.16 µM): > 10 µM
IC50 (second compound 10 µM): > 10 µM
viability, T/C [1]: 119%
viability, T/C [2]: 98.5%
viability, T/C [3]: 99.8%
viability, T/C [4]: 102%
viability, T/C [5]: 118%
viability, T/C [6]: 120%
viability, T/C [7]: 93.6%
viability, T/C [8]: 110%
viability, T/C [9]: 97.3%
viability, T/C [10]: 107%
viability, T/C [11]: 118%
viability, T/C [12]: 115%
viability, T/C [13]: 83.7%
viability, T/C [14]: 104%
viability, T/C [15]: 90%
viability, T/C [16]: 101%
viability, T/C [17]: 100%
viability, T/C [18]: 101%
viability, T/C [19]: 89.1%
viability, T/C [20]: 85.9%
viability, T/C [21]: 96.8%
viability, T/C [22]: 85.6%
viability, T/C [23]: 103%
viability, T/C [24]: 104%
viability, T/C [25]: 83.7%
viability, T/C [26]: 84.8%
viability, T/C [27]: 86.2%
viability, T/C [28]: 83.6%
viability, T/C [29]: 85.9%
viability, T/C [30]: 74.2%
